Measured values as given in patent US4707477A, “Treating and preventing agent for ischemic cardiac disease and arrhythmia” (priority 1985, dated 1987).
Counter-ions that a name gives are not always drawn.

Legend:
dog = assay: Adrenaline-induced ventricular tachycardia/fibrillation after CaCl2 infusion in anesthetized dog (Experimental Example 1); format: in vivo; settings: 0.5 mg/kg i.v. 12 min before adrenaline, 0.1, 0.2 and 0.3 mg adrenaline successively i.v., 2% CaCl2 infusion
Procedure: (§1) A dog was anesthetized with 50 mg/kg of sodium pentobarbital and a 2% CaC12 solution was intravenously injected into the femoral vein of the animal at a rate of 1.33 ml/min/10 kg. After 90 min, 0.1 mg, 0.2 mg and 0.3 mg of adrenaline were successively injected thereto intraveneously.

striated structure = assay: Pathological examination of striated structure (Experimental Example 1); format: in vivo, dog; settings: previously administered, 0.5 mg/kg i.v.
Procedure: as §1
From a pathological viewpoint, the striated structure of a subject was damaged in the case where no bunazosin hydrochloride was previously administered.

[1] = system: Creatinie phosphokinase (CPK); assay: Creatine phosphokinase (CPK) after CaCl2, sodium polystyrenesulfonate and adrenaline in anesthetized dog (Experimental Example 2); format: in vivo; settings: 0.5 mg/kg previously administered
Procedure: A dog was anesthetized with 50 mg/kg of sodium pentobarbital and a 0.5% CaCl2 solution was intravenously injected into the femoral vein of the animal at a rate of 1.33 ml/min/10 kg simultaneously with enemiasis of 25 g of sodium polystyrenesulfonate. After 30 min, 0.05 mg/kg of adrenaline was intravenously injected thereto.

[2] = Acute toxicity, LD50, ICR mouse; settings: in vivo
[3] = Acute toxicity, LD50, Wistar rat; settings: in vivo
Solubility = format: physicochemical

SMILES: CCCC(=O)N1CCCN(c2nc(N)c3cc(OC)c(OC)cc3n2)CC1 [bunazosin hydrochloride]
- ventricular tachycardia or ventricular fibrillation (dog): none among ten animals
- change of striated structure (pathological viewpoint) (striated structure): no change was observed
- CPK, difference from the control ([1]; 60 min after injection of adrenaline): no significant difference from the control
- CPK ([1]; determined 60 min after injection of adrenaline (0.05 mg/kg i.v.)): 85.1±15.6
- LD50 ([2]; im, female, intramuscular): 598 mg/kg
- LD50 ([2]; im, male, intramuscular): 660 mg/kg
- LD50 ([2]; iv, female): 80 mg/kg
- LD50 ([2]; iv, male): 57 mg/kg
- LD50 ([2]; po, female): 1250 mg/kg
- LD50 ([2]; po, male): 1200 mg/kg
- LD50 ([2]; sc, female, subcutaneous): 630 mg/kg
- LD50 ([2]; sc, male, subcutaneous): 730 mg/kg
- LD50 ([3]; im, female, intramuscular): 152 mg/kg
- LD50 ([3]; im, male, intramuscular): 205 mg/kg
- LD50 ([3]; iv, female): 50 mg/kg
- LD50 ([3]; iv, male): 51 to 64 mg/kg
- LD50 ([3]; po, female): 1280 mg/kg
- LD50 ([3]; sc, female, subcutaneous): 365 mg/kg
- LD50 ([3]; sc, male, subcutaneous): 430 mg/kg
- solubility (Solubility; absolute ethanol): hardly soluble
- solubility (Solubility; chloroform): almost insoluble
- solubility (Solubility; formic acid): highly soluble
- solubility (Solubility; methanol): not readily soluble
- solubility (Solubility; n-butanol): hardly soluble
- solubility (Solubility; water): not readily soluble
